Measured values reported in ChEMBL document CHEMBL1201862, “PubChem BioAssay data set” (2004).
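Compound exposure: 48 hours, 5 concentrations, 96-well plates. Abbreviation: GI50, concentration required for 50% inhibition of growth.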 Activity calls are given as the source filed them. Cut-off read from the data, not from the text of the source: active = GI50 up to about 1.1 µM and inactive = higher.

Experiments:
Experiment in all cases: NCI-60 cell line screen, 48 h
HT-29 = test system: HT-29
MCF7 = test system: MCF7
Hs-578T = test system: Hs-578T
PC-3 = test system: PC-3
A549 = test system: A549
T47D = test system: T47D
ACHN = test system: ACHN
SR = test system: SR
SNB-19 = test system: SNB-19
U-251 = test system: U-251
EKVX = test system: EKVX
OVCAR-5 = test system: OVCAR-5
SNB-75 = test system: SNB-75
COLO 205 = test system: COLO 205
NCI-H23 = test system: NCI-H23
MDA-MB-231 = test system: MDA-MB-231
MOLT-4 = test system: MOLT-4
NCI-H226 = test system: NCI-H226
SF-268 = test system: SF-268

SMILES | GI50 (HT-29) | GI50 (MCF7) | GI50 (Hs-578T) | GI50 (PC-3) | GI50 (A549) | GI50 (T47D) | GI50 (ACHN) | GI50 (SR) | GI50 (SNB-19) | GI50 (U-251) | GI50 (EKVX) | GI50 (OVCAR-5) | GI50 (SNB-75) | GI50 (COLO 205) | GI50 (NCI-H23) | GI50 (MDA-MB-231) | GI50 (MOLT-4) | GI50 (NCI-H226) | GI50 (SF-268)
O=Cc1ccc(-c2nccc3c2[nH]c2ccccc23)o1 | > 88.1 µM (inactive) | 55 µM (inactive) | 19.4 µM (inactive) | 98.2 µM (inactive) | 73.1 µM (inactive) | 47.9 µM (inactive) | > 100 µM (inactive) | > 100 µM (inactive) | > 100 µM (inactive) | 68.9 µM (inactive) | > 100 µM (inactive) | 12.3 µM (inactive) | > 100 µM (inactive) | > 100 µM (inactive) | > 100 µM (inactive) | > 85.1 µM (inactive) | > 94.8 µM (inactive) | 1.31 µM (inactive) | > 100 µM (inactive)
Clc1cccc(/C=N/C23CC4CC(CC(C4)C2)C3)c1Cl | > 10 µM (inactive) | > 10 µM (inactive) | > 10 µM (inactive) | > 10 µM (inactive) | > 10 µM (inactive) | > 10 µM (inactive) | > 10 µM (inactive) | 0.637 µM (active) | > 10 µM (inactive) | > 10 µM (inactive) | > 10 µM (inactive) | > 10 µM (inactive) | 5.36 µM (inactive) | > 10 µM (inactive) | > 10 µM (inactive) | > 10 µM (inactive) | – | > 10 µM (inactive) | > 10 µM (inactive)
COC(=O)[C@H]1ON2O[C@H](OC3CCCC[C@@H]3c3ccccc3)C[C@@H]3CC[C@H]1[C@@]32C (some centres undefined) | 51.8 µM (inactive) | 65.6 µM (inactive) | > 100 µM (inactive) | 47.6 µM (inactive) | 60.3 µM (inactive) | 46.5 µM (inactive) | > 100 µM (inactive) | 72.9 µM (inactive) | > 100 µM (inactive) | 77.6 µM (inactive) | 92.9 µM (inactive) | > 100 µM (inactive) | 36.4 µM (inactive) | 91.4 µM (inactive) | > 100 µM (inactive) | > 100 µM (inactive) | 54.3 µM (inactive) | 49.4 µM (inactive) | > 100 µM (inactive)
C=C(C)[C@H]1C=C[C@@H](OC(=O)c2cccnc2)[C@@]23CO[C@@](C)([C@H](OC(=O)c4cccnc4)[C@@]4(OC(C)=O)C[C@H](C)[C@H](OCCC)[C@@H]4[C@H]2OC(C)=O)[C@H]13 | – | > 15 µM (inactive) | 13.5 µM (inactive) | 7.74 µM (inactive) | – | > 15 µM (inactive) | > 15 µM (inactive) | 11.9 µM (inactive) | > 15 µM (inactive) | > 15 µM (inactive) | > 15 µM (inactive) | > 15 µM (inactive) | 3.82 µM (inactive) | 8.09 µM (inactive) | > 15 µM (inactive) | > 15 µM (inactive) | 7.1 µM (inactive) | > 15 µM (inactive) | > 15 µM (inactive)
CC(=O)NC1C(OCc2ccccc2)OC(CO)C(O)C1OC(C)C(=O)NC(C)C(=O)NC(CCC(=O)NCCCCNc1c2ccccc2nc2cccc([N+](=O)[O-])c12)C(N)=O (centres undefined) | 0.00514 µM (active) | 0.00995 µM (active) | 0.171 µM (active) | 0.0989 µM (active) | 0.0404 µM (active) | 0.291 µM (active) | 0.0119 µM (active) | 0.00796 µM (active) | 0.021 µM (active) | 0.042 µM (active) | 0.0625 µM (active) | 0.336 µM (active) | 0.18 µM (active) | 0.0327 µM (active) | 0.0457 µM (active) | 0.0237 µM (active) | 0.148 µM (active) | 0.0962 µM (active) | 0.0357 µM (active)
O=C1C2=C(SCCS2)C(=O)c2c(Sc3ccc(Cl)cc3)c(Sc3ccc(Cl)cc3)c(Sc3ccc(Cl)cc3)c(Sc3ccc(Cl)cc3)c21 | – | > 100 µM (inactive) | 8.49 µM (inactive) | > 100 µM (inactive) | > 100 µM (inactive) | > 100 µM (inactive) | > 100 µM (inactive) | 21.8 µM (inactive) | 25.2 µM (inactive) | 57.8 µM (inactive) | > 100 µM (inactive) | > 100 µM (inactive) | 19.1 µM (inactive) | > 100 µM (inactive) | 74.3 µM (inactive) | 32 µM (inactive) | 17.1 µM (inactive) | 40.8 µM (inactive) | > 100 µM (inactive)
CO[C@@H]1C=C[C@@]23c4cc5c(cc4C(O)N(CC2O)C3C1)OCO5 (some centres undefined) | 3 µM (inactive) | 1.98 µM (inactive) | 22.6 µM (inactive) | 3.56 µM (inactive) | 3.35 µM (inactive) | 3.35 µM (inactive) | 3.33 µM (inactive) | 4 µM (inactive) | 3.3 µM (inactive) | 3.61 µM (inactive) | 3.86 µM (inactive) | 4.91 µM (inactive) | 2.82 µM (inactive) | 2.94 µM (inactive) | 4.29 µM (inactive) | 3.87 µM (inactive) | 2.82 µM (inactive) | 36.5 µM (inactive) | 7.36 µM (inactive)
